Several values for one entry are separate records, joined by “and”; a condition that tells them apart may be missing. Equal values may be shown once. Inconclusive results and toxic doses are left out.
Tested on: CD2F1 mice, L1210 leukemia sc, survival T/C
Assay: NCI In Vivo Anticancer Drug Screen. Data for tumor model L1210 Leukemia (subcutaneous) in CD2F1 (CDF1) mice
Details: endpoint: median survival time, higher = longer survival
How it was run: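 Mice with transplanted tumor dosed; survival/tumor size read; T/C vs vehicle controls.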

[1] = dose: 39.0 mg/kg/injection, schedule: Q01DX Z (sc), vehicle: water
[2] = dose: 65.0 mg/kg/injection, schedule: Q01DX Z (sc), vehicle: water
[3] = dose: 108.0 mg/kg/injection, schedule: Q01DX Z (sc), vehicle: water
[4] = dose: 180.0 mg/kg/injection, schedule: Q01DX Z (sc), vehicle: water

## CN(Cc1cnc2nc(N)nc(N)c2n1)c1c(Cl)cc(C(=O)NC(CCC(=O)O)C(=O)O)cc1Cl (stereo unspecified)
dose: 5.83 mg/kg/injection, schedule: Q#A X Z (oral), vehicle: other
  T/C: 163 % of control
dose: 8.1 mg/kg/injection, schedule: Q#A X Z (oral), vehicle: other
  T/C: 220 % of control
dose: 8.1 mg/kg/injection, schedule: Q#A X Z (sc), vehicle: other
  T/C: 655 % of control
dose: 9.72 mg/kg/injection, schedule: Q#A X Z (oral), vehicle: other
  T/C: 204 % of control
dose: 9.72 mg/kg/injection, schedule: Q#A X Z (sc), vehicle: other
  T/C: 345 % of control
dose: 13.5 mg/kg/injection, schedule: Q#A X Z (oral), vehicle: other
  T/C: 230 % of control
dose: 13.5 mg/kg/injection, schedule: Q#A X Z (sc), vehicle: other
  T/C: 730 % of control
dose: 16.2 mg/kg/injection, schedule: Q#A X Z (sc), vehicle: other
  T/C: 322 % of control
dose: 22.5 mg/kg/injection, schedule: Q#A X Z (oral), vehicle: other
  T/C: 190 % of control
dose: 22.5 mg/kg/injection, schedule: Q#A X Z (sc), vehicle: other
  T/C: 690 % of control
dose: 25.0 mg/kg/injection, schedule: Q01DX Z (sc), vehicle: other
  T/C: 500 % of control
dose: 27.0 mg/kg/injection, schedule: Q01DX Z (oral), vehicle: other
  T/C: 186 % of control and 215 % of control
dose: 27.0 mg/kg/injection, schedule: Q01DX Z (sc), vehicle: other
  T/C: 331 % of control and 565 % of control and 900 % of control
dose: 27.0 mg/kg/injection, schedule: Q#A X Z (sc), vehicle: other
  T/C: 786 % of control
dose: 28.0 mg/kg/injection, schedule: Q01DX Z (oral), vehicle: other
  T/C: 194 % of control
dose: 37.5 mg/kg/injection, schedule: Q#A X Z (oral), vehicle: other
  T/C: 175 % of control
dose: 37.5 mg/kg/injection, schedule: Q#A X Z (sc), vehicle: other
  T/C: 565 % of control
dose: 45.0 mg/kg/injection, schedule: Q01DX Z (oral), vehicle: other
  T/C: 181 % of control and 210 % of control
dose: 45.0 mg/kg/injection, schedule: Q01DX Z (sc), vehicle: other
  T/C: 363 % of control and 825 % of control
dose: 47.0 mg/kg/injection, schedule: Q01DX Z (oral), vehicle: other
  T/C: 222 % of control
dose: 47.0 mg/kg/injection, schedule: Q01DX Z (sc), vehicle: other
  T/C: 816 % of control
dose: 50.0 mg/kg/injection, schedule: Q01DX Z (sc), vehicle: other
  T/C: 500 % of control
dose: 62.5 mg/kg/injection, schedule: Q#A X Z (sc), vehicle: other
  T/C: 175 % of control
dose: 75.0 mg/kg/injection, schedule: Q01DX Z (oral), vehicle: other
  T/C: 159 % of control and 190 % of control
dose: 75.0 mg/kg/injection, schedule: Q01DX Z (sc), vehicle: other
  T/C: 231 % of control and 554 % of control and 800 % of control
dose: 75.0 mg/kg/injection, schedule: Q03DX Z (oral), vehicle: other
  T/C: 100 % of control
dose: 75.0 mg/kg/injection, schedule: Q#A X Z (oral), vehicle: other
  T/C: 122 % of control
dose: 78.0 mg/kg/injection, schedule: Q01DX Z (oral), vehicle: other
  T/C: 188 % of control
dose: 78.0 mg/kg/injection, schedule: Q01DX Z (sc), vehicle: other
  T/C: 272 % of control
dose: 108.0 mg/kg/injection, schedule: Q## X Z (oral), vehicle: other
  T/C: 110 % of control
dose: 108.0 mg/kg/injection, schedule: Q## X Z (sc), vehicle: other
  T/C: 115 % of control
dose: 125.0 mg/kg/injection, schedule: Q01DX Z (oral), vehicle: other
  T/C: 172 % of control and 200 % of control
dose: 125.0 mg/kg/injection, schedule: Q01DX Z (sc), vehicle: other
  T/C: 205 % of control
dose: 125.0 mg/kg/injection, schedule: Q03DX Z (oral), vehicle: other
  T/C: 100 % of control
dose: 125.0 mg/kg/injection, schedule: Q03DX Z (sc), vehicle: other
  T/C: 513 % of control
dose: 130.0 mg/kg/injection, schedule: Q01DX Z (oral), vehicle: other
  T/C: 200 % of control
dose: 130.0 mg/kg/injection, schedule: Q01DX Z (sc), vehicle: other
  T/C: 194 % of control
dose: 180.0 mg/kg/injection, schedule: Q## X Z (oral), vehicle: other
  T/C: 115 % of control
dose: 180.0 mg/kg/injection, schedule: Q## X Z (sc), vehicle: other
  T/C: 115 % of control
dose: 208.0 mg/kg/injection, schedule: Q03DX Z (oral), vehicle: other
  T/C: 113 % of control
dose: 208.0 mg/kg/injection, schedule: Q03DX Z (sc), vehicle: other
  T/C: 272 % of control
dose: 216.0 mg/kg/injection, schedule: Q01DX Z (oral), vehicle: other
  T/C: 172 % of control
dose: 216.0 mg/kg/injection, schedule: Q01DX Z (sc), vehicle: other
  T/C: 155 % of control
dose: 250.0 mg/kg/injection, schedule: Q## X Z (sc), vehicle: other
  T/C: 500 % of control
dose: 300.0 mg/kg/injection, schedule: Q## X Z (oral), vehicle: other
  T/C: 110 % of control
dose: 300.0 mg/kg/injection, schedule: Q## X Z (sc), vehicle: other
  T/C: 120 % of control
dose: 347.0 mg/kg/injection, schedule: Q03DX Z (oral), vehicle: other
  T/C: 109 % of control
dose: 347.0 mg/kg/injection, schedule: Q03DX Z (sc), vehicle: other
  T/C: 195 % of control
dose: 360.0 mg/kg/injection, schedule: Q01DX Z (oral), vehicle: other
  T/C: 166 % of control
dose: 500.0 mg/kg/injection, schedule: Q## X Z (oral), vehicle: other
  T/C: 115 % of control
dose: 500.0 mg/kg/injection, schedule: Q## X Z (sc), vehicle: other
  T/C: 370 % of control and 500 % of control
dose: 577.0 mg/kg/injection, schedule: Q03DX Z (oral), vehicle: other
  T/C: 150 % of control
dose: 577.0 mg/kg/injection, schedule: Q03DX Z (sc), vehicle: other
  T/C: 209 % of control
dose: 833.0 mg/kg/injection, schedule: Q## X Z (oral), vehicle: other
  T/C: 155 % of control
dose: 833.0 mg/kg/injection, schedule: Q## X Z (sc), vehicle: other
  T/C: 360 % of control
dose: 961.0 mg/kg/injection, schedule: Q03DX Z (oral), vehicle: other
  T/C: 122 % of control
dose: 961.0 mg/kg/injection, schedule: Q03DX Z (sc), vehicle: other
  T/C: 172 % of control

## CCN(CC)c1ccc(/C=C/c2ccnc3ccccc23)cc1
[1]
  T/C: 100 % of control
[2]
  T/C: 100 % of control
[3]
  T/C: 100 % of control
[4]
  T/C: 100 % of control
dose: 300.0 mg/kg/injection, schedule: Q01DX Z (sc), vehicle: water
  T/C: 100 % of control
dose: 500.0 mg/kg/injection, schedule: Q01DX Z (sc), vehicle: water
  T/C: 100 % of control

## O=C(Nc1cccc(C2=NCCN2)c1)c1ccc(-c2ccc(C(=O)Nc3cccc(C4=NCCN4)c3)cc2)cc1
dose: 23.0 mg/kg/injection, schedule: Q01DX Z (sc), vehicle: water
  T/C: 110 % of control
[1]
  T/C: 105 % of control
[2]
  T/C: 100 % of control
[3]
  T/C: 105 % of control
[4]
  T/C: 100 % of control

## CC(C)(C)N1CC1CNC(=O)C(=O)NCC1CN1C(C)(C)C (stereo unspecified)
dose: 3.13 mg/kg/injection, schedule: Q01DX009 (ip), vehicle: saline with Tween-80
  T/C: 107 % of control and 108 % of control
dose: 6.25 mg/kg/injection, schedule: Q01DX009 (ip), vehicle: saline with Tween-80
  T/C: 122 % of control
dose: 12.5 mg/kg/injection, schedule: Q01DX009 (ip), vehicle: saline with Tween-80
  T/C: 157 % of control
dose: 25.0 mg/kg/injection, schedule: Q01DX009 (ip), vehicle: saline with Tween-80
  T/C: 86 % of control

## FC(F)(F)c1nc2nc(Cl)c(Cl)nc2[nH]1
dose: 30.0 mg/kg/injection, schedule: Q04DX003 (ip), vehicle: saline with Tween-80
  T/C: 104 % of control
dose: 44.0 mg/kg/injection, schedule: Q04DX003 (ip), vehicle: saline with Tween-80
  T/C: 106 % of control
dose: 66.0 mg/kg/injection, schedule: Q04DX003 (ip), vehicle: saline with Tween-80
  T/C: 106 % of control

## CCn1cnc2c(=S)nc[nH]c21
dose: 833.0 mg/kg/injection, schedule: Q01DX Z (sc), vehicle: methylcellulose (MC)
  T/C: 120 % of control

— PubChem BioAssay AID258 (DTP/NCI, 2004)
